From US12497642B2, “Incorporation of unnatural nucleotides and methods of use in vivo thereof” (THE SCRIPPS RESEARCH INSTITUTE, priority 2017, dated 2025)

Assays:
[1] = system: semi-synthetic organism (SSO) (strain YZ3); assay: Replication and UBP retention in vivo in the semi-synthetic organism (streptavidin biotin shift, PAGE), Example 1; type: cell-based, Escherichia coli; conditions: for UBP retention in vivo, in words: dTPT3TP analog paired with dNaMTP, discussion
Protocol: All bacteria were cultured in 100 μL of liquid 2×YT media (casein peptone 16 g/L, yeast extract 10 g/L, NaCl 5 g/L) supplemented with potassium phosphate (50 mM, pH 7) in 96-well microwell plates. When noted, antibiotics were used at the following concentrations: chloramphenicol, 5 μg/mL; ampicillin, 100 μg/mL. Cell growth, indicated as OD600, was measured using a Perkin Elmer EnVision 2103 Multilabel Reader with a 590/20 nm filter. Unless otherwise stated, molecular biology reagents were purchased from New England Biolabs (Ipswich, MA) and were used according to the manufacturer's protocols. As necessary, purification of nucleic acids was accomplished by micro-elution columns (Zymo Research Corp; Irvine, CA). All natural oligonucleotides were purchased from IDT (San Diego, CA), and oligonucleotides containing dNaM were synthesized by Biosearch Technologies (Petaluma, CA) with purification by reverse phase cartridge. Unnatural nucleotide triphosphates were prepared, and confirmed by MALDI-TOF and UV/Vis.
Plasmids containing the dNaM-dTPT3 UBP were prepared and used to transform the semi-synthetic organism (SSO). To create a template for in vivo replication assays, Golden Gate assembly was used to construct a derivative of the pUC19 plasmid in which a single dNaM-dTPT3 UBP was embedded within the TK1 sequence ([…]; […]), a context within which the UBP is well replicated in the SSO. Plasmids were then used to transform the SSO (strain YZ3). Following transformation, the SSO was allowed to recover at 37° C. for 1 h in media containing dNaMTP (125 μM) and dTPT3TP (25 μM). Cells were pelleted by centrifugation, resuspended in fresh media lacking unnatural triphosphates, split into 100-μL aliquots and then used to inoculate cultures containing different pairs of unnatural triphosphates at the specified concentrations. When the cell density reached an OD600 of ˜0.7, cells were pelleted and plasmids were recovered and PCR amplified with d5SICSTP and a biotinylated analog of dNaMTP, and UBP retention was determined by comparing the intensity of the streptavidin shifted and unshifted bands via PAGE.

[2] = PCR amplification in vitro (SAR named in the discussion); type: biochemical; conditions: paired with any analog

For `O=c1c2cccnc2ccn1C1CC(O)C(COP(=O)(O)OP(=O)(O)OP(=O)(O)O)O1` (stereo not shown) [dNICS], the UBP retention ([1]; context 1, dNaMTP 125 μM, dTPT3TP analog 125 μM) was “significant UBP retention”, the “UBP retention in vivo, in words” value [1] was “supports UBP retention reasonably well” and the “UBP retention in vivo, in words” value ([1]; listed as dNICSTP) was “reasonable retention in vivo”. For the same compound, the PCR amplification [2] was “do not support PCR amplification”.
